From ChEMBL document CHEMBL5543078, “Peptidomimetics as potent dual SARS-CoV-2 cathepsin-L and main protease inhibitors: In silico design, synthesis and pharmacological characterization” (Eur J Med Chem, 2024)
Calls of active or inactive are those of the source. The rule behind the calls is not given here. Non-standard residues stand in square brackets, D forms with d. Residues, ends and D or L forms follow the SMILES beside them. *: point of attachment. AllylGly = C=CC[C@H](N)C(=O)O; Acryloyl = C=CC(=O)*; NHBn = c1ccc(CN*)cc1; ClAc = O=C(CCl)*

Columns and labels:
[1] = system: Human coronavirus OC43; format: functional, organism-based
[2] = system: Human coronavirus 229E; format: functional, organism-based
[3] = Half life in human plasma at 10 uM measured upto 180 mins by LC-MS analysis; format: ADME, cell-free
[4] = Cytotoxicity against African green monkey Vero cells assessed as change in cell morphology by measuring minimum cytotoxic concentration by microscopic analysis; format: toxicity, cell-based; details: chlorocebus sabaeus
[5] = Stability in simulated intestinal fluid assessed as parent compound remaining incubated upto 120 mins by LC-MS analysis; format: ADME; details: read-out: Stability
[6] = system: SARS-CoV-2; assay: microbe, parasite or virus in culture; details: Severe acute respiratory syndrome coronavirus 2, 860-J1 (Delta), Vero
Description: Antiviral activity against SARS-CoV-2 860-J1 (Delta) infected in African green monkey Vero cells assessed as reduction in virus-induced cytopathic effect incubated for 6 to 7 days by microscopic analysis

[7] = system: SARS-CoV-2; assay: microbe, parasite or virus in culture; details: Severe acute respiratory syndrome coronavirus 2, NVDBB-2220 (Alpha), Vero
Description: Antiviral activity against SARS-CoV-2 NVDBB-2220 (Alpha) infected in African green monkey Vero cells assessed as reduction in virus-induced cytopathic effect incubated for 6 to 7 days by microscopic analysis

[8] = Stability in simulated gastric fluid assessed as parent compound remaining incubated upto 120 mins by LC-MS analysis; format: ADME; details: read-out: Stability
[9] = system: SARS-CoV-2; assay: microbe, parasite or virus in culture; details: Severe acute respiratory syndrome coronavirus 2, Omicron B1.1.529, Vero
Description: Antiviral activity against SARS-CoV-2 Omicron B1.1.529 infected in African green monkey Vero cells assessed as reduction in virus-induced cytopathic effect incubated for 6 to 7 days by microscopic analysis

[10] = system: SARS-CoV-2; assay: microbe, parasite or virus in culture; details: Severe acute respiratory syndrome coronavirus 2, Wuhan/WIV04/2020, Vero
Description: Antiviral activity against SARS-CoV-2 Wuhan/WIV04/2020 infected in African green monkey Vero cells assessed as reduction in virus-induced cytopathic effect incubated for 6 to 7 days by microscopic analysis

[11] = target: Replicase polyprotein 1ab (Severe acute respiratory syndrome coronavirus 2, UniProt P0DTD1); assay: Inhibition of recombinant SARS-CoV-2 main protease using DABCYL-KTSAVLQSGFRKME-EDANS as fluorescent substrate preincubated for 30 mins followed by substrate addition by FRET assay
[12] = Metabolic stability in human liver microsomes assessed as half life incubated upto 60 mins in presence of NADPH by LC-MS analysis; format: ADME, Microsome
[13] = Metabolic stability in human liver microsomes assessed as intrinsic clearance incubated upto 60 mins in presence of NADPH by LC-MS analysis; format: ADME, Microsome; details: read-out: CLH
[14] = Metabolic stability in human liver microsomes assessed as half life incubated upto 60 mins in presence of NADPH and UDPGA by LC-MS analysis; format: ADME, Microsome
[15] = target: Procathepsin L (Homo sapiens, UniProt P07711); assay: Inhibition of Cathepsin L (unknown origin) using Z-Leu-Arg-AMC fluorometric dipeptide as substrate peincubated for 10 mins followed by substrate addition by fluorescence based assay
Procathepsin L, sequence (P07711 whole entry): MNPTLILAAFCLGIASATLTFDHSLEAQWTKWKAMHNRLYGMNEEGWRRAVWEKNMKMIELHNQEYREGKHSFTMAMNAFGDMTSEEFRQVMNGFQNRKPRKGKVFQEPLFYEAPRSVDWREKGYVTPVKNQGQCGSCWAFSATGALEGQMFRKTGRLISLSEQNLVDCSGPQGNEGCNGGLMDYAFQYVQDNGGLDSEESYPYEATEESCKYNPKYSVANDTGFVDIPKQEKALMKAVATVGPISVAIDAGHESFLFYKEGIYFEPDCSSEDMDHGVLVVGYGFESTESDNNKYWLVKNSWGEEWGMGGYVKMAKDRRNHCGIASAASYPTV

SMILES: NC(=O)c1ncn([C@@H]2O[C@H](CO)[C@@H](O)[C@H]2O)n1
- Activity [1]: Active
- Activity [2]: Active

SMILES: CC(C)C[C@H](NC(=O)[C@H](Cc1c[nH]c2ccccc12)NC(=O)CCl)C(=O)NCc1ccccc1 (ClAc-Trp-Leu-NHBn)
- half-life at 10 µM [3]: 24.4 min
- MCC [4]: 20 µM
- remaining at 2 h [5]: > 80%
- Activity [1]: Active
- EC50 [6]: 1.25 µM
- Activity [2]: Active
- EC50 [7]: 0.41 µM
- remaining at 2 h [8]: > 80%
- EC50 [9]: 0.4 µM
- EC50 [10]: 0.25 µM
- IC50 [11]: 8.32 µM

SMILES: CC(C)C(=O)OC[C@H]1O[C@@H](n2ccc(NO)nc2=O)[C@H](O)[C@@H]1O [MOLNUPIRAVIR]
- MCC [4]: > 100 µM
- EC50 [6]: 6.04 µM
- EC50 [7]: 5.44 µM
- EC50 [9]: 1.22 µM
- EC50 [10]: 4.31 µM

SMILES: COC(=O)[C@H](CC(C)C)NC(=O)[C@H](Cc1c[nH]c2ccccc12)NC(=O)CCl (ClAc-Trp-Leu-OMe)
- MCC [4]: 21 µM
- Activity [1]: Active
- EC50 [6]: > 20 µM
- Activity [2]: Active
- EC50 [7]: > 20 µM
- EC50 [9]: > 4 µM
- EC50 [10]: > 4 µM
- IC50 [11]: > 30 µM

SMILES: O=C(CCl)N[C@@H](Cc1ccccc1)C(=O)N[C@@H](Cc1c[nH]c2ccccc12)C(=O)NCc1ccccc1 (ClAc-Phe-Trp-NHBn)
- half-life [12]: 38.3 min
- MCC [4]: > 100 µM
- remaining at 2 h [5]: > 80%
- Activity [1]: Active
- EC50 [6]: 1.3 µM
- Activity [2]: Active
- EC50 [7]: 0.68 µM
- remaining at 2 h [8]: > 80%
- EC50 [9]: 1.34 µM
- CLint scaled [13]: > 45 mL/min/kg
- EC50 [10]: 0.09 µM
- IC50 [11]: 0.73 µM
- half-life [14]: 19.6 min

SMILES: C=CC[C@H](NC(=O)CCl)C(=O)N[C@@H](Cc1c[nH]c2ccccc12)C(=O)NCc1ccccc1 (ClAc-[AllylGly]-Trp-NHBn)
- MCC [4]: > 100 µM
- Activity [1]: Active
- EC50 [6]: 2.12 µM
- Activity [2]: Active
- EC50 [7]: 1.16 µM
- EC50 [9]: 5.87 µM
- EC50 [10]: 0.49 µM
- IC50 [11]: 1.72 µM

SMILES: C=CC[C@H](NC(=O)CCl)C(=O)N[C@@H](CC=C)C(=O)N[C@H](CNCc1ccccc1)Cc1c[nH]c2ccccc12
- MCC [4]: > 100 µM
- Activity [1]: Active
- EC50 [6]: 18.1 µM
- Activity [2]: Active
- EC50 [7]: 2.53 µM
- EC50 [9]: 15.2 µM
- EC50 [10]: 4.29 µM
- IC50 [11]: > 30 µM

SMILES: C=CC[C@H](NC(=O)CCl)C(=O)N[C@@H](Cc1c[nH]c2ccccc12)C(=O)NCCN1CCOCC1
- MCC [4]: > 100 µM
- Activity [1]: Active
- EC50 [6]: 29.2 µM
- Activity [2]: Active
- EC50 [7]: 10.7 µM
- EC50 [9]: 13.5 µM
- EC50 [10]: 10.3 µM
- IC50 [11]: > 30 µM

SMILES: CCC(CC)COC(=O)[C@H](C)N[P@](=O)(OC[C@H]1O[C@@](C#N)(c2ccc3c(N)ncnn23)[C@H](O)[C@@H]1O)Oc1ccccc1 [REMDESIVIR]
- MCC [4]: > 40 µM
- Activity [1]: Active
- EC50 [6]: 3.74 µM
- Activity [2]: Active
- EC50 [7]: 2.93 µM
- EC50 [9]: 0.83 µM
- EC50 [10]: 3.74 µM

SMILES: COC(=O)[C@H](CCC(N)=O)NC(=O)[C@H](Cc1c[nH]c2ccccc12)NC(=O)[C@H](CC(C)C)NC(=O)CCl (ClAc-Leu-Trp-Gln-OMe)
- MCC [4]: > 100 µM
- Activity [1]: Active
- EC50 [6]: > 100 µM
- Activity [2]: Active
- EC50 [7]: > 100 µM
- EC50 [9]: > 100 µM
- EC50 [10]: > 100 µM
- IC50 [11]: > 30 µM

SMILES: CC(C)C[C@H](NC(=O)CCl)C(=O)N[C@H](Cc1c[nH]c2ccccc12)C(=O)NCc1ccccc1
- MCC [4]: > 100 µM
- Activity [1]: Active
- EC50 [6]: > 20 µM
- Activity [2]: Active
- EC50 [7]: > 20 µM
- EC50 [9]: > 20 µM
- EC50 [10]: 8.71 µM
- IC50 [11]: 14.6 µM

SMILES: CC(C)C[C@H](NC(=O)CCl)C(=O)N[C@@H](Cc1ccccc1)C(=O)N[C@@H](Cc1c[nH]c2ccccc12)C(=O)NCc1ccccc1 (ClAc-Leu-Phe-Trp-NHBn)
- MCC [4]: > 100 µM
- Activity [1]: Active
- EC50 [6]: > 20 µM
- Activity [2]: Active
- EC50 [7]: > 20 µM
- EC50 [9]: > 100 µM
- EC50 [10]: 4.81 µM
- IC50 [11]: > 30 µM

SMILES: CC(C)C[C@H](NC(=O)CCl)C(=O)N[C@@H](Cc1c[nH]c2ccccc12)C(=O)NCc1ccccc1
- half-life [12]: 29.7 min
- MCC [4]: > 100 µM
- remaining at 2 h [5]: > 80%
- Activity [1]: Active
- EC50 [6]: 1.2 µM
- Activity [2]: Active
- EC50 [7]: 0.32 µM
- remaining at 2 h [8]: > 80%
- EC50 [9]: 1.28 µM
- CLint scaled [13]: > 45 mL/min/kg
- EC50 [10]: 0.27 µM
- IC50 [11]: 2.81 µM
- half-life [14]: 21.1 min

SMILES: CC(C)C[C@@H](C(=O)NCC12CC3CC(CC(C3)C1)C2)N(Cc1ccccc1)C(=O)CCl
- MCC [4]: 19 µM
- Activity [1]: Active
- EC50 [6]: > 4 µM
- Activity [2]: Active
- EC50 [7]: > 4 µM
- EC50 [9]: > 4 µM
- EC50 [10]: > 4 µM
- IC50 [11]: > 30 µM

SMILES: O=C(CCl)NCC(=O)N[C@@H](Cc1c[nH]c2ccccc12)C(=O)NCc1ccccc1 (ClAc-Gly-Trp-NHBn)
- half-life [12]: 346 min
- MCC [4]: > 100 µM
- remaining at 2 h [5]: > 80%
- Activity [1]: Active
- EC50 [6]: 0.54 µM
- Activity [2]: Active
- EC50 [7]: 0.3 µM
- remaining at 2 h [8]: > 80%
- EC50 [9]: 0.81 µM
- CLint scaled [13]: < 15 mL/min/kg
- EC50 [10]: 0.16 µM
- IC50 [11]: > 30 µM
- half-life [14]: 122 min

SMILES: C=CC(=O)N[C@@H](Cc1ccccc1)C(=O)N[C@@H](Cc1c[nH]c2ccccc12)C(=O)NCc1ccccc1 (Acryloyl-Phe-Trp-NHBn)
- MCC [4]: > 100 µM
- Activity [1]: Active
- EC50 [6]: > 20 µM
- IC50 [15]: > 30 µM
- Activity [2]: Active
- EC50 [7]: > 20 µM
- EC50 [9]: > 20 µM
- EC50 [10]: > 20 µM
- IC50 [11]: > 30 µM

SMILES: CCN(CC)CCCC(C)Nc1ccnc2cc(Cl)ccc12 (stereo not given)
- Activity [1]: Active
- Activity [2]: Active

SMILES: CCOC(=O)[C@H]1O[C@@H]1C(=O)N[C@@H](CC(C)C)C(=O)NCCC(C)C [ALOXISTATIN]
- Activity [1]: Active
- IC50 [15]: 0.034 µM
- Activity [2]: Active

SMILES: CC(C)C[C@@H](NC(=O)CCl)C(=O)N[C@@H](Cc1c[nH]c2ccccc12)C(=O)NCc1ccccc1
- half-life at 10 µM [3]: 232 min
- half-life [12]: 74.5 min
- MCC [4]: > 100 µM
- remaining at 2 h [5]: > 80%
- Activity [1]: Active
- EC50 [6]: 1.08 µM
- Activity [2]: Active
- EC50 [7]: 0.57 µM
- remaining at 2 h [8]: > 80%
- EC50 [9]: 1.37 µM
- CLint scaled [13]: < 45 mL/min/kg
- EC50 [10]: 0.08 µM
- IC50 [11]: > 30 µM
- half-life [14]: 75.3 min

SMILES: O=C(CS)N[C@@H](Cc1ccccc1)C(=O)N[C@@H](Cc1c[nH]c2ccccc12)C(=O)NCc1ccccc1
- MCC [4]: > 100 µM
- Activity [1]: Active
- EC50 [6]: > 100 µM
- Activity [2]: Active
- EC50 [7]: > 100 µM
- EC50 [9]: > 100 µM
- EC50 [10]: > 100 µM
- IC50 [11]: > 30 µM

SMILES: O=C(CCl)N[C@@H](Cc1ccc(O)cc1)C(=O)N[C@@H](Cc1c[nH]c2ccccc12)C(=O)NCc1ccccc1 (ClAc-Tyr-Trp-NHBn)
- MCC [4]: > 100 µM
- Activity [1]: inactive
- EC50 [6]: 12.3 µM
- Activity [2]: inactive
- EC50 [7]: 3.46 µM
- EC50 [9]: 5.04 µM
- EC50 [10]: 2.37 µM
- IC50 [11]: 8.35 µM

SMILES: C=CC(=O)N[C@@H](CC(C)C)C(=O)N[C@@H](Cc1c[nH]c2ccccc12)C(=O)NCc1ccccc1
- MCC [4]: > 100 µM
- Activity [1]: Active
- EC50 [6]: > 100 µM
- Activity [2]: Active
- EC50 [7]: > 100 µM
- EC50 [9]: > 100 µM
- EC50 [10]: > 100 µM
- IC50 [11]: > 30 µM
